Values quoted from earlier work as cited in patent publication US20090318293A1, “AGRICULTURAL COMPOSITION” (PLANT IMPACT PLC, priority 2005, published 2009).

System: cotyledon growth, chlorophyll biosynthesis and cell elongation
Conditions: on cotyledon growth, chlorophyll biosynthesis and cell elongation in the systems studied

Cn1c(=O)c2c(ncn2C)n(C)c1=O [caffeine, 3,7-Dihydro-1,3,7-trimethyl-1H-purine-2,6-dione]
cytokinin-like effect: weak cytokinin-like effect
